Values after ≈ are worked out from the molar mass of the structure shown.

A short description of this data set: Toxicity against Artemia salina by lethality assay. It is filed as organism-based. Conditions: in vivo, read-out: LD50 (the source's name).
For `C/C(=C\C(=O)/C=C(\C)CCCc1ccoc1)CCCc1ccoc1`, the LC50 was 1.6 µg/mL (≈ 4.9 µM).

In the case of `C/C(=C/C(=O)/C=C(\C)CCCc1ccoc1)CCCc1ccoc1`, the LC50 worked out at 0.09 µg/mL (≈ 0.276 µM).

As for `C/C(=C/C(=O)/C=C(/C)CCCc1ccoc1)CCCc1ccoc1`, the LC50 is 0.45 µg/mL (≈ 1.38 µM).

As for `CC(=O)O[C@H]1C[C@H]2[C@]3(C)CCCC(C)(C)[C@H]3CC[C@]2(C)[C@H]2CC=C3CO[C@H](O)[C@H]3[C@]12C`, the LC50 came out at 200 µg/mL (≈ 464 µM).

Consider `CC(=O)O[C@H]1C[C@@H]2[C@@]3(C)CCCC(C)(C)[C@@H]3CC[C@@]2(C)[C@@H]2CCc3cocc3[C@@]12C`, for which the LC50 amounted to 180 µg/mL (≈ 436 µM).

In the case of `CC(=O)O[C@@H]1OCC2=CC[C@H]3[C@]4(C)CC[C@H]5C(C)(C)CCC[C@]5(C)[C@H]4C[C@H](OC(C)=O)[C@]3(C)[C@H]21` [DEOXOSCALARIN ACETATE], the LC50 was determined as 190 µg/mL.

Consider `C/C(=C\C(=O)C/C(C)=C/CCc1ccoc1)CCCc1ccoc1` [FUROSPONGIN 2], for which the LC50 was determined as 0.12 µg/mL (≈ 0.368 µM).

Values taken from ChEMBL document CHEMBL1147321, “Terpenoids from the North Adriatic Sponge Spongia officinalis” (J Nat Prod, 1989).
